Experimental data from patent US6316448A, “Pyrazolo[3,4-d][1,2,3] troazines having anticonvulsant activity and process for their preparation” (priority 1999, dated 2001).
One block for each compound: values may come before it.

What was measured:
[1] = Anticonvulsive action, s.c. pentetrazol (PTZ), mouse i.p.; type: in vivo
Text: (§1) ^3) Mouse i.p.: MES = maximal electroshock, PTZ = s.c. pentetrazol
(§2) ^5) in % of the protected animals

[2] = Anticonvulsive action, maximal electroshock (MES), mouse i.p.; type: in vivo
Text: as §1, §2

[3] = Octanol/water partition coefficient; type: physicochemical
Text: ^2) Octanol/water partition coefficient, n = not measured

[4] = in vivo; details: rat, po
Text: (§3) Analogous results were obtained for the oral action.

[5] = Maximal electroshock, rat p.o.; type: in vivo; details: po
Protocol: The compounds according to the invention were tested in vivo for their anticonvulsive action (Table 1) in mice (i.p. administration) or rats (p.o. administration) according to the internationally customary standard (Pharmac. Weekblad, Sc. Ed. 14, 132 (1992) and Antiepileptic Drugs, Third. Ed., Raven Press, New York 1989).
as §3

[6] = ip, mouse i.p., s.c. pentetrazol, 100 mg/kg, read-out: Action, % of the protected animals (PTZ)
[7] = ip, mouse i.p., MES, 100 mg/kg, read-out: Action, % of the protected animals (MES)
[8] = ip, mouse i.p., MES, read-out: Action, % of the protected animals (MES)
[9] = ip, mouse i.p., s.c. pentetrazol, read-out: Action, % of the protected animals (PTZ)

Compound: O=c1[nH]nnc2nn(Cc3ccccc3)cc12 [Compound 12, 6-benzyl-3,6-dihydropyrazolo[3,4-d][1,2,3]triazin-4-one]
responders at 100 mg/kg [1, 6]: 0%
responders at 100 mg/kg [2, 7]: 66%

logP [3]: 2.02
Compound: O=c1[nH]nnc2nn(Cc3cccc(C(F)(F)F)c3)cc12 [Compound 6, 6-(3-trifluoromethylbenzyl)-3,6-dihydropyrazolo[3,4-d][1,2,3]triazin-4-one]
responders at 100 mg/kg [1, 6]: 20%
responders at 100 mg/kg [2, 7]: 66%

Compound: O=c1[nH]nnc2nn(Cc3ccccc3Cl)cc12 [Compound 2, 6-(2-chlorobenzyl)-3,6-dihydropyrazolo[3,4-d][1,2,3]triazin-4-one]
logP [3]: 0.82
TD50 [4]: > 250 mg/kg
ED50 [5]: 3 mg/kg
responders at 30 mg/kg ([1]; ip, mouse i.p., s.c. pentetrazol, 30 mg/kg, read-out: Action, % of the protected animals (PTZ)): 60%
responders at 30 mg/kg [2, 8]: 100%

logP [3]: 1.74
Compound: O=c1[nH]nnc2nn(Cc3ccccc3C(F)(F)F)cc12 [Compound 3, 6-(2-trifluoromethylbenzyl)-3,6-dihydropyrazolo[3,4-d][1,2,3]triazin-4-one]
responders at 100 mg/kg [1, 6]: 100%
responders at 30 mg/kg [2, 8]: 33%

Compound: Cc1c2c(=O)[nH]nnc2nn1Cc1ccccc1Cl [Compound 10, 6-(2-chlorobenzyl)-5-methyl-3,6dihydropyrazolo[3,4-d][1,2,3]triazin-4one]
responders at 300 mg/kg [1, 9]: 0%
responders at 100 mg/kg [2, 7]: 66%

Compound: NC(=O)N1c2ccccc2C=Cc2ccccc21 [Carbamazepine, reference compound]
responders at 100 mg/kg [1, 6]: 0%
responders at 100 mg/kg [2, 7]: 100%

logP [3]: 0.74
Compound: Cc1ccccc1Cn1cc2c(=O)[nH]nnc2n1 [Compound 4, 6-(2-methylbenzyl)-3,6-dihydropyrazolo[3,4-d][1,2,3]triazin-4-one]
responders at 300 mg/kg [1, 9]: 100%
responders at 30 mg/kg [2, 8]: 100%

logP [3]: 1.28
Compound: O=c1[nH]nnc2nn(Cc3ccc(F)cc3)cc12 [Compound 7, 6-(4-fluorobenzyl)-3,6-dihydropyrazolo[3,4-d][1,2,3]triazin-4-one]
responders at 300 mg/kg [1, 9]: 100%
responders at 100 mg/kg [2, 7]: 66%

Compound: 6-(2-chloro-4-fluorobenzyl)-5-methyl-3,6-dihydropyrazolo[3,4-d][1,2,3]triazin-4-one [Compound 11]
Action, % of the protected animals (PTZ) ([1]; mouse i.p., s.c. pentetrazol, 100 mg/kg): 33%
Action, % of the protected animals (MES) ([2]; mouse i.p., MES, 100 mg/kg): 66%

logP [3]: 1.88
Compound: O=c1[nH]nnc2nn(Cc3ccc(Cl)cc3)cc12 [Compound 8, 6-(4-chlorobenzyl)-3,6-dihydropyrazolo[3,4-d][1,2,3]triazin-4-one]
responders at 300 mg/kg [1, 9]: 100%
responders at 300 mg/kg ([2]; ip, mouse i.p., MES, 300 mg/kg, read-out: Action, % of the protected animals (MES)): 100%

Compound: O=c1[nH]nnc2nn(Cc3ccccc3F)cc12 [Compound 1, 6-(2-fluorobenzyl)-3,6-dihydropyrazolo[3,4-d][1,2,3]triazin-4-one]
responders at 100 mg/kg [1, 6]: 66%
responders at 30 mg/kg [2, 8]: 100%

logP [3]: 1.38
Compound: O=c1[nH]nnc2nn(Cc3c(F)cccc3Cl)cc12 [Compound 9, 6-(2-chloro-6-fluorobenzyl)-3,6-dihydropyrazolo[3,4-d][1,2,3]triazin-4one]
responders at 100 mg/kg [1, 6]: 100%
responders at 10 mg/kg ([2]; ip, mouse i.p., MES, 10 mg/kg, read-out: Action, % of the protected animals (MES)): 20%

logP [3]: 1.83
Compound: O=c1[nH]nnc2nn(Cc3cccc(Cl)c3)cc12 [Compound 5, 6-(3-chlorobenzyl)-3,6-dihydropyrazolo[3,4-d][1,2,3]triazin-4-one]
responders at 300 mg/kg [1, 9]: 0%
responders at 100 mg/kg [2, 7]: 100%

Compound: CCCC(CCC)C(=O)O [Valproate, reference compound]
responders at 100 mg/kg ([1]; Mus musculus, ip, read-out: Action, % of the protected animals (PTZ)): 30%
responders at 100 mg/kg ([2]; Mus musculus, ip, read-out: Action, % of the protected animals (MES)): 0%
